# Results as given in patent US12575568B2, “Composition for promoting the growth of legumes” (CH BIOTECH R&D CO., LTD., priority 2022, dated 2026).
# Assays:
# Format in all cases: in vivo, Alfalfa (Medicago sativa L.)
# alfalfa plants [1] = assay: Example 3 efficacy test on alfalfa with or without Rhizobium inoculation: shoot weight, leaf area, root dry weight; details: Day 12 after foliar spray
# Experimental: Five (5) seeds were sown in one pot. Alfalfa plants were randomly divided into 6 groups, in which Groups 1 to 3 were not inoculated with Rhizobium, and Groups 4 to 6 were inoculated with Rhizobium. Rhizobium inoculation was the same as described in Example 2. After inoculation, the pots were placed in a phytotron, which was operated at 25/23° C. day/night temperature and on a 16/8 h light/dark cycle. Two (2) weeks after sowing (V2 stage), alfalfa plants were applied with the reagents listed in Table 6 once at a rate of 10 mL/12 pots using a foliar spray treatment. The reagents were applied once in total during the test period. [table] Twelve (12) days after the application of reagents, 12 alfalfa plants from each group (N=12) were randomly selected for phenotype observation, and the shoot fresh weight of the collected samples was measured. Then, the collected samples were dried at 50° C. overnight, and the shoot dry weight was measured. Twelve (12) days after the application of reagents, 6 alfalfa plants from each group (N=6) were randomly selected. All the trifoliate leaves of the selected plants were collected and numbered in sequence from bottom to top. The leaf area of all the trifoliate leaves of each alfalfa plant was measured by a leaf analyzer ([…]2400, Regent Instruments Inc.). Twelve (12) days after the application of reagents, 4 alfalfa plants from each group (N=4) were randomly selected. The collected samples were dried at 50° C. overnight, and then the root dry weight was measured. Average and standard error (SE) of each group were calculated.
# alfalfa plants [2] = assay: Example 3 nitrogen content of alfalfa leaves; details: 12 days after application; Groups 4-6 Rhizobium inoculated; p<0.001
# Experimental: (§1) Alfalfa (Medicago sativa L.) seeds were sown in 3.5-inch pots containing culture medium (peat soil:vermiculite=1:1). Five (5) seeds were sown in one pot. Alfalfa plants were randomly divided into 6 groups, in which Groups 1 to 3 were not inoculated with Rhizobium, and Groups 4 to 6 were inoculated with Rhizobium. Rhizobium inoculation was the same as described in Example 2. After inoculation, the pots were placed in a phytotron, which was operated at 25/23° C. day/night temperature and on a 16/8 h light/dark cycle. Two (2) weeks after sowing (V2 stage), alfalfa plants were applied with the reagents listed in Table 6 once at a rate of 10 mL/12 pots using a foliar spray treatment. The reagents were applied once in total during the test period. [table] Twelve (12) days after the application of reagents, 4 alfalfa plants from each group (N=4) were randomly selected. The first to fifth trifoliate leaves of the selected plants were collected, air-dried at 50° C. overnight and then ground into powder. […] Average and standard error (SE) of each group were calculated.
# [3] = system: glutamate synthase (GOGAT); assay: Example 3 activity of glutamate synthase (GOGAT) of alfalfa leaves; details: 12 days after application; Groups 2-3 without, Groups 4-6 with Rhizobium
# Experimental: as §1, with “third” for “first to fifth”, “collected to determine GOGAT activity by the following method. […] The GOGAT activity is determined by NADH reduction through measuring fluorescence intensity” for “collected, air-dried”, “excitation/emission wavelengths of 340/445 nm.” for “50° C. overnight and then ground into powder.”
# [4] = Groups 2-3 without, Groups 4-6 with Rhizobium
# [5] = Groups 4-6 Rhizobium inoculated
# [6] = Groups 4-6 Rhizobium inoculated, Group 1 no Rhizobium, no actives
smiles,measurement,setting,value
"NCCCC(=O)O [Group 4, γ-aminobutyric acid (GABA)]","Leaf Area, Sum of trifoliate leaves",alfalfa plants [1]; [4],6.27 cm^2/plant
same,"Leaf Area, trifoliate leaf number 1",alfalfa plants [1]; [4],0.90 cm^2/plant
same,"Leaf Area, trifoliate leaf number 2",alfalfa plants [1]; [4],1.03 cm^2/plant
same,"Leaf Area, trifoliate leaf number 3",alfalfa plants [1]; [4],1.01 cm^2/plant
same,"Leaf Area, trifoliate leaf number 4",alfalfa plants [1]; [4],0.85 cm^2/plant
same,"Leaf Area, trifoliate leaf number 5",alfalfa plants [1]; [4],0.87 cm^2/plant
same,"Leaf Area, trifoliate leaf number 6",alfalfa plants [1]; [4],0.93 cm^2/plant
same,"Leaf Area, trifoliate leaf number 7",alfalfa plants [1]; [4],0.52 cm^2/plant
same,"Leaf Area, trifoliate leaf number 8",alfalfa plants [1]; [4],0.17 cm^2/plant
same,"Leaf Area, trifoliate leaf number 9",alfalfa plants [1]; [4],0.00 cm^2/plant
same,increase of leaf area compared with Group 1,alfalfa plants [1]; [4],64%
same,root dry weights compared with Group 1,alfalfa plants [1]; [4],higher
same,increase of trifoliate leaves compared with Group 1,alfalfa plants [1]; [5],2 trifoliate leaves
same,"plant height compared with Group 1 (words, FIG. 12)",alfalfa plants [1]; [5],higher
same,increase of shoot dry weight compared with Group 1,alfalfa plants [1]; [6],52.9%
same,increase of shoot fresh weight compared with Group 1,alfalfa plants [1]; [6],66.5%
same,increase of nitrogen content in the leaves compared with Group 1,alfalfa plants [2],115.8%
same,increase of GOGAT activity in the leaves compared with Group 1,[3],13.5%
